Source: article PMC4431182 (2015)

How the values were obtained:
Experiment in all cases: electrochemical aptamer-based sensor, square wave voltammetry
[1] = test system: High-Gain Parent (RNA, aptamer) CUUGGUUUAGGUAAUGAG; conditions: Na+ 100 mM, Mg2+ 5 mM; 20 mM Tris, pH 7.4; surface-immobilised aptamer; apparent
[2] = test system: 7UG (RNA, aptamer) CUUGGUGUAGGUAAUGAG; conditions: Na+ 100 mM, Mg2+ 5 mM; 20 mM Tris, pH 7.4; surface-immobilised aptamer; no quantitative binding, -9% signal change at 30 µM tobramycin
[3] = test system: 7UC (RNA, aptamer) CUUGGUCUAGGUAAUGAG; conditions: Na+ 100 mM, Mg2+ 5 mM; 20 mM Tris, pH 7.4; surface-immobilised aptamer; no quantitative binding, 3% signal change at 30 µM tobramycin
[4] = test system: 16GU (RNA, aptamer) CUUGGUUUAGGUAAUUAG; conditions: Na+ 100 mM, Mg2+ 5 mM; 20 mM Tris, pH 7.4; surface-immobilised aptamer; apparent
[5] = test system: 3-UAC (RNA, aptamer) CUUGGUUUAGGUAAUGAGUAC; conditions: Na+ 100 mM, Mg2+ 5 mM; 20 mM Tris, pH 7.4; surface-immobilised aptamer; apparent

KD [1]: 80 ± 10 nM
binding [2]: no
binding [3]: no
Kd [4]: 3000 ± 400 nM
Kd [5]: 170 ± 30 nM
Structure (SMILES): NC[C@H]1O[C@H](O[C@H]2[C@H](O)[C@@H](O[C@H]3O[C@H](CO)[C@@H](O)[C@H](N)[C@H]3O)[C@H](N)C[C@@H]2N)[C@H](N)C[C@@H]1O
